Our source for the EC50 and Ki values is BindingDB's records for doi:10.1124/jpet.102.047092 (Case Western Reserve University, 2003).

Among the targets are Histamine H4 receptor (Homo sapiens, UniProt Q9H3N8); Histamine H1 receptor (Homo sapiens, UniProt P35367); Histamine H2 receptor (Homo sapiens, UniProt P25021); Cannabinoid receptor 1 (Rattus norvegicus, UniProt P20272); Nischarin (Rattus norvegicus, UniProt Q4G017).
The target in assay [1] is Metabotropic glutamate receptor 8 (Rattus norvegicus, UniProt P70579).
Sequence of Metabotropic glutamate receptor 8 (P70579 whole entry): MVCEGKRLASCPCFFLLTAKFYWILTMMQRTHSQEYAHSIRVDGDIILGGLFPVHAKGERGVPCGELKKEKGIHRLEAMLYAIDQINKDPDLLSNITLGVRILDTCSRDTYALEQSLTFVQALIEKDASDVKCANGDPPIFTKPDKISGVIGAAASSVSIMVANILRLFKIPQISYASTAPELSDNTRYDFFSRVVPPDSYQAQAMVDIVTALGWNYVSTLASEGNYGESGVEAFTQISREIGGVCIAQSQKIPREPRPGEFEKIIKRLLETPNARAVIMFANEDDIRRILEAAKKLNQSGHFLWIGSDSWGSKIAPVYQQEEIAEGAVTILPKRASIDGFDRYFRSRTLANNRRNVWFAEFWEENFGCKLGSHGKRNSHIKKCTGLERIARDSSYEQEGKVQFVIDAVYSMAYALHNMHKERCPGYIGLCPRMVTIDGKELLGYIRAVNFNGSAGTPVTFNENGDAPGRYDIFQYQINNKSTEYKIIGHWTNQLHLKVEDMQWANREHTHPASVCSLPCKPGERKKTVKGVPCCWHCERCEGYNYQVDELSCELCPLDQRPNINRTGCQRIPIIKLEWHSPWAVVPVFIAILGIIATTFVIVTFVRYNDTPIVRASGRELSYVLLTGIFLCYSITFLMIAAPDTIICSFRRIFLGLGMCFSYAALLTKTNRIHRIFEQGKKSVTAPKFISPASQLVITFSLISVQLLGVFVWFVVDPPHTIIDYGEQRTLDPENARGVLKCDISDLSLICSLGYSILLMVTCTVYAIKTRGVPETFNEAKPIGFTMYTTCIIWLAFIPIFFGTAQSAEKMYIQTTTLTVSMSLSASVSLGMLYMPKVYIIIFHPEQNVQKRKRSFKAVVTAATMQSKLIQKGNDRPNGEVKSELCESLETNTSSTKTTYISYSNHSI
For assay [2], the target named is Metabotropic glutamate receptor 6 (Rattus norvegicus, UniProt P35349).
Sequence of Metabotropic glutamate receptor 6 (P35349 whole entry): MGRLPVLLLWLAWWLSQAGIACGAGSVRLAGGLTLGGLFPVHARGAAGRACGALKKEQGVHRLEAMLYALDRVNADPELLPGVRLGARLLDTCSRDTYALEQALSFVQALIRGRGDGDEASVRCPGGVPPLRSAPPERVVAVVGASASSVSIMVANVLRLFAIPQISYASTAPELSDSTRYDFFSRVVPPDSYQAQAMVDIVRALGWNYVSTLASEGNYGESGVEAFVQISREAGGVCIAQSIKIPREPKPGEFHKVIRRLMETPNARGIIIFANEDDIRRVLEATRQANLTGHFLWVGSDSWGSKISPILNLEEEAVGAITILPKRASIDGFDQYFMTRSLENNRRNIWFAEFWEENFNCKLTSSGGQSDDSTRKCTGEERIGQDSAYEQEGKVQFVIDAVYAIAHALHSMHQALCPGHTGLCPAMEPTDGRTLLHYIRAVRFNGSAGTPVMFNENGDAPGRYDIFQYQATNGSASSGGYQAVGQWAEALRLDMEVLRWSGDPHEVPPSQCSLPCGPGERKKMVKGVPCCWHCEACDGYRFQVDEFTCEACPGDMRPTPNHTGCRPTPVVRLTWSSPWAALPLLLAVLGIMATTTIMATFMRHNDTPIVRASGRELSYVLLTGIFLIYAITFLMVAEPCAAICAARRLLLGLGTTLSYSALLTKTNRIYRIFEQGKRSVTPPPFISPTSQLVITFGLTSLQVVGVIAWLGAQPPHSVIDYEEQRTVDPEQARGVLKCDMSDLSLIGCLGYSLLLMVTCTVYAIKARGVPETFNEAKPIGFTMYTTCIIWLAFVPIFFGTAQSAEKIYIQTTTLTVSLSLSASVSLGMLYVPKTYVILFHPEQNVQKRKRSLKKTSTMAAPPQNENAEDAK
Assay [3] deals with Neuronal acetylcholine receptor subunit alpha-4 (Homo sapiens, UniProt P43681).
Sequence of Neuronal acetylcholine receptor subunit alpha-4 (Homo sapiens, UniProt P43681) (P43681 whole entry): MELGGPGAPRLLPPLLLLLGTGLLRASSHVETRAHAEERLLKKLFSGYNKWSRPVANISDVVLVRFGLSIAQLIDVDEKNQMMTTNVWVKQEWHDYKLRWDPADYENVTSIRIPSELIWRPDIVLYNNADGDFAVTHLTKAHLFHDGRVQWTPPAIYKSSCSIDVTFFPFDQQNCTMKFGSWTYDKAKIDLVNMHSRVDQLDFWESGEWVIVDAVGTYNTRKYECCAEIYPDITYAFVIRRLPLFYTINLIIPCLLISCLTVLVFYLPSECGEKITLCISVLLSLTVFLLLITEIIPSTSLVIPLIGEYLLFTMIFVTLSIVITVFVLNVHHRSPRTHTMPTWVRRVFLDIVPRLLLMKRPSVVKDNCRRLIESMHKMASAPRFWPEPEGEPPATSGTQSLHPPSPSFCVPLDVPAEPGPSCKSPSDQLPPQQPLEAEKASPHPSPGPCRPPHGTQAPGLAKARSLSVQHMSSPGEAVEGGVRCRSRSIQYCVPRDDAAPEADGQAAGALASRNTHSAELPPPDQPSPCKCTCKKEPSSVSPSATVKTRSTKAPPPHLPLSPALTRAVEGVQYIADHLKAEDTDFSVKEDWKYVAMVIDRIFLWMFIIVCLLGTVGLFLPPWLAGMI
Assay [4] deals with Neuronal acetylcholine receptor subunit alpha-4 (Rattus norvegicus, UniProt P09483).
The target of assay [5] is Beta-1 adrenergic receptor (Rattus norvegicus, UniProt P18090).
Sequence of Beta-1 adrenergic receptor (P18090 whole entry): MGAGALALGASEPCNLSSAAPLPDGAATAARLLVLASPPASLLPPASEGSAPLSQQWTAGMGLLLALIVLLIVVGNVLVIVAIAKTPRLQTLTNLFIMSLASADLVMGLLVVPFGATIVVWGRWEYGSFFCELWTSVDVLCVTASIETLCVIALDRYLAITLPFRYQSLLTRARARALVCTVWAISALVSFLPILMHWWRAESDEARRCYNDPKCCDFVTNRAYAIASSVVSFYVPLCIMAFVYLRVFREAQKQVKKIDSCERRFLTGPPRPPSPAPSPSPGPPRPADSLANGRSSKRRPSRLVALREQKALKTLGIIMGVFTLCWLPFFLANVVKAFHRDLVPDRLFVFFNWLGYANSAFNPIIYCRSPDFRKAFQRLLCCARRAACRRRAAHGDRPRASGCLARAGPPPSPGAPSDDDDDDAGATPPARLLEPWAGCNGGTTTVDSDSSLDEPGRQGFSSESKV
Assay [6] has as its target Metabotropic glutamate receptor 5 (Rattus norvegicus, UniProt P31424).
For assay [7], the target named is Metabotropic glutamate receptor 4 (Rattus norvegicus, UniProt P31423).
In assay [8] the target is Metabotropic glutamate receptor 2 (Rattus norvegicus) (UniProt P31421).
The target in assay [9] is Voltage-dependent L-type calcium channel subunit alpha-1C (Rattus norvegicus, UniProt P22002).
The target of assay [10] is Neuronal acetylcholine receptor subunit alpha-2 (Homo sapiens, UniProt Q15822).
Sequence of Neuronal acetylcholine receptor subunit alpha-2 (Q15822 whole entry): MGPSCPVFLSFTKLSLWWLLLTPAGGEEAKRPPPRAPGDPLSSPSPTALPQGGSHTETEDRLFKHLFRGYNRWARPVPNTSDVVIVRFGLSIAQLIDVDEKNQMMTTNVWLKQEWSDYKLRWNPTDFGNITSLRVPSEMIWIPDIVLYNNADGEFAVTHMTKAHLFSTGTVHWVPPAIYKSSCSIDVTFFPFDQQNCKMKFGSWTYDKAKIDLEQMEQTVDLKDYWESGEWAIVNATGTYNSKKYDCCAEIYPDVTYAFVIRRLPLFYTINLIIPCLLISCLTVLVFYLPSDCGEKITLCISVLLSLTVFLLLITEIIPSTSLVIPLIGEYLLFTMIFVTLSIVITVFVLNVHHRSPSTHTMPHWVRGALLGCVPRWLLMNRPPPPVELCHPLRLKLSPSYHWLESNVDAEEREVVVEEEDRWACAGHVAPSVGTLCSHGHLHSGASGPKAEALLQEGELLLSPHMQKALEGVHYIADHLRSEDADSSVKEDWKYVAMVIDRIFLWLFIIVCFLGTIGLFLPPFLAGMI
Assay [11] has as its target Neuronal acetylcholine receptor subunit alpha-3 (Homo sapiens, UniProt P32297).
For assay [12], the target named is Metabotropic glutamate receptor 1 (Rattus norvegicus, UniProt P23385).

Bounds are passed on as bounds.

Sequence of Histamine H1 receptor (P35367 whole entry): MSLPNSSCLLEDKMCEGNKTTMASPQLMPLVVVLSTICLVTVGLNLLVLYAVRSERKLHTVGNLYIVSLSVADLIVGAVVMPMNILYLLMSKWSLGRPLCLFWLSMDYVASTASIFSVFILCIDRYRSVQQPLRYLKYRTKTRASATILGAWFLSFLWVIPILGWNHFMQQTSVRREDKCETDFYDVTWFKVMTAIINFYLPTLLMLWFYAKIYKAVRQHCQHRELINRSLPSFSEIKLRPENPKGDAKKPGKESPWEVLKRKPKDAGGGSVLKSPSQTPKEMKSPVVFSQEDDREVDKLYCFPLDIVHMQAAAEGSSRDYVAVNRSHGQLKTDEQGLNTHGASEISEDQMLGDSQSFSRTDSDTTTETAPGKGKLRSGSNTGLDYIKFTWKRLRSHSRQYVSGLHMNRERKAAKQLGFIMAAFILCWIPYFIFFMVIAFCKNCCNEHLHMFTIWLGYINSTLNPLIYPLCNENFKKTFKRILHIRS
Sequence of Neuronal acetylcholine receptor subunit alpha-3 (P32297 whole entry): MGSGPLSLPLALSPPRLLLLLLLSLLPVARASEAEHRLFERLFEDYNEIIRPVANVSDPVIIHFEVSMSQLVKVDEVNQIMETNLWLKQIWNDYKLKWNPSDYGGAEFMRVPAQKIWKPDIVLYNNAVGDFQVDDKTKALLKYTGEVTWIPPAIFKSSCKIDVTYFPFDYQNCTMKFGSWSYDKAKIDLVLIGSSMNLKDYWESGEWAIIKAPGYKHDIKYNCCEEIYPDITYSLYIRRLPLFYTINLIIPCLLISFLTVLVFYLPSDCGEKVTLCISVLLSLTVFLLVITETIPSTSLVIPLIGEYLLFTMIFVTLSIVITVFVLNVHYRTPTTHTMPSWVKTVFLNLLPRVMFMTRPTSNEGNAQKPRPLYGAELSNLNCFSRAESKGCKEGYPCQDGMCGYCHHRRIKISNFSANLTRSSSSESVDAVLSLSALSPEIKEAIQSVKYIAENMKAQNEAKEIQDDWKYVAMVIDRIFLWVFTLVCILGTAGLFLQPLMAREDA
Sequence of Histamine H2 receptor (P25021 whole entry): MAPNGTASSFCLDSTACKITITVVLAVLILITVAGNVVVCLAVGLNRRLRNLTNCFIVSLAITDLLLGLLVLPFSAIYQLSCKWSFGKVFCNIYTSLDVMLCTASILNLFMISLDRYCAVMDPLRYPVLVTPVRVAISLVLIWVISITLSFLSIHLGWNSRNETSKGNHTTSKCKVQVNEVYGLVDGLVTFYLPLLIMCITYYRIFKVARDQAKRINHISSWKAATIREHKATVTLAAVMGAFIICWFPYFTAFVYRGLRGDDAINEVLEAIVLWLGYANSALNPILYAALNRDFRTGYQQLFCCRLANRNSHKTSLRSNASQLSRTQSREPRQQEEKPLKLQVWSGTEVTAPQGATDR

On to `N[C@@H](CCP(=O)(O)O)C(=O)O`, for which the EC50 in assay [1] was found to be 1.26 µM; in assay [2], 0.398 µM.
Turning to `N[C@@H](CCS(=O)(=O)O)C(=O)O` [L-homocysteic acid], the Ki (on Histamine H4 receptor; at Histamine H1 receptor; on Histamine H2 receptor; at Cannabinoid receptor 1; in assay [3]; in [4]) was above 10 µM in each case. Also, the Ki (in [5]; in assay [9]; in assay [10]; in assay [11]; at Nischarin) was above 10 µM in each case. Further, the EC50 in [6] is 6.31 µM; in assay [7], above 10 µM; in [1], above 10 µM; in [2], 7.94 µM; in assay [8] it was above 10 µM; in assay [12] it was above 10 µM.
